The source of these data is patent publication US20030157516A1, “G protein coupled receptor” (priority 2000, published 2003).

Values joined by “and” are separate entries in the source; they are usually repeats but may differ in a detail not shown here. Identical values can stand only once.

One experiment concerns C6 glioma. Kind of experiment: Preliminary [3H]adenine binding on wild-type cells. The method, then:
(§1) A) Methods—[3H]Adenine binding experiments were performed to characterize wild type cell lines before transfection as well as transiently and permanently transfected cell lines. Membranes were thawed on ice and diluted in 50 mM HEPES buffer, pH 7.4 supplemented with 10 mM MgCl2 and 1 mM EGTA. […] Both assays were carried out in a final volume of 500 μl, using 18 μg of membrane protein for the transfected CHO cells and 30 μg of membrane protein for the wild type CHO cells for the saturation binding. For competition binding experiments, 15 and 50 μg of membrane protein was used for the transfected and wild type cells, respectively. The reaction was terminated by rapid filtration through Whatman GF/B filters using a Brandel multi-channel cell harvester (96 wells). The filters were washed three times with 3 ml ice cold 50 mM HEPES buffer, pH 7.4, transferred to liquid scintillation vials and 3 ml of scintillation fluid (Ultima Gold MV, Packard, Netherlands) was added. Samples were counted in a β-scintillation counter after at least 6 hours to permit the glass fiber filters to become uniformly translucent.
(§2) The assay conditions were identical to those for the transfected cells.

The subject of the next experiment is CHO. Kind of experiment: Preliminary [3H]adenine binding on wild-type cells. The conditions noted are these: pool 1 and pool 2. The method, then: as §1, §2
For another experiment, the system named is Cos7. Kind of experiment: Preliminary [3H]adenine binding on wild-type cells. On the procedure:
as §1, §2

The subject of the next experiment is HEK293. Kind of experiment: Preliminary [3H]adenine binding on wild-type cells. The method, then: as §1, §2
Another experiment relates to NIH3T3. Kind of experiment: Preliminary [3H]adenine binding on wild-type cells. The method, then:
as §1, §2

For experiment [1], the target named is T1, adenine binding rat receptor (Rattus norvegicus, UniProt Q7TN49).
T1 construct: expressed in transfected cells; host or cells: CHO cells, transient, lipofectamine PLUS
T1 sequence (Q7TN49 1-304): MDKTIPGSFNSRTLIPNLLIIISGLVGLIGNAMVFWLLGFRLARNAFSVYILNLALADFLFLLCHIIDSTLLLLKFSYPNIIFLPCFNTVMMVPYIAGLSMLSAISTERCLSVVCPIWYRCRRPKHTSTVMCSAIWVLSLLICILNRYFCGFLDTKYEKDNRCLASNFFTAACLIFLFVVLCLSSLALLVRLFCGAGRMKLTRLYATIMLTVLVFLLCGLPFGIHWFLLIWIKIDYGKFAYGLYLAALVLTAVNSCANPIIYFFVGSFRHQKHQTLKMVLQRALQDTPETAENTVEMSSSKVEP
Kind of experiment: [3H]adenine saturation binding on CHO membranes transiently transfected. The conditions noted are these: transfected cells. On the procedure: (§3) The membranes were prepared as total particulate fractions. The cell lines were cultured to […] on 145 mm petri dishes and treated with 5 mM sodium butyrate, 24 hours before collection. The culturing medium was removed and the cells were washed twice with ice cold phosphate buffered saline (PBS without Ca^2+ and Mg^2+), scraped from the plates in 50 mM Tris-HCl buffer, pH 7.4, and collected by centrifugation (10 minutes at 16,000 RPM at 4° C.). The cell pellet was re-suspended in hypotonic 5 mM Tris-HCl buffer, pH 7.4, and homogenized with an Ultra Turrax homogenizer (Janker Kunkel, Germany). The homogenate was centrifuged at 18,000 RPM for 20 minutes at 4° C. The final pellet was re-suspended in 50 mM Tris-HCl buffer, pH 7.4 and stored in aliquots at −70° C. A protein determination was performed using the Bradford protein assay (Biorad, Germany) using bovine serum albumin (BSA) as standard.
as §1
Addition of Gpp-NHp blocks the high-affinity or agonist binding sites of GPCRs, so that only low-affinity sites are available.

A further experiment concerns wild type CHO cells. Kind of experiment: [3H]adenine saturation binding on wild type CHO membranes. The settings on record: mean n=3. The method, then:
as §3
A) Methods—[3H]Adenine binding experiments were performed to characterize wild type cell lines before transfection as well as transiently and permanently transfected cell lines. Membranes were thawed on ice and diluted in 50 mM HEPES buffer, pH 7.4 supplemented with 10 mM MgCl2 and 1 mM EGTA. […] Samples were counted in a β-scintillation counter after at least 6 hours to permit the glass fiber filters to become uniformly translucent. […]

As for `Nc1ncnc2nc[nH]c12` [[^3H]adenine], the “[3H]adenine binding” value in the experiment on C6 glioma is 839 fmoles/mg protein; in the experiment with CHO it was 303 fmoles/mg protein (pool 1) and 583 fmoles/mg protein (pool 2); with Cos7 it was 226 fmoles/mg protein; in the experiment on HEK293, 168 fmoles/mg protein; with NIH3T3, 642 fmoles/mg protein. Besides, in experiment [1], the “average saturation binding levels” value is “around 19 pmol/mg”. Besides, the Bmax in experiment [1] (100 μM Gpp-NHp, mean n=3) is 17341 fmoles/mg protein; in experiment [1] (No Gpp-NHp, mean n=3), 18894 fmoles/mg protein; in experiment [1] (No Gpp-NHp, single experiments), 25375 fmoles/mg protein and 17569 fmoles/mg protein and 13738 fmoles/mg protein. Further, the Kd in experiment [1] (100 μM Gpp-NHp, mean n=3) is 61 nM; in experiment [1] (100 μM Gpp-NHp, single experiments), 57 nM and 72 nM and 54 nM; in experiment [1] (No Gpp-NHp, mean n=3), 24 nM; in experiment [1] (No Gpp-NHp, single experiments), 23 nM and 25 nM; in the experiment on wild type CHO cells (100 μM Gpp-NHp), 16 nM; in the experiment with wild type CHO cells (No Gpp-NHp), 26 nM.

By Kd is commonly meant the concentration at which binding is half-saturated. Higher therefore signals lower affinity.
